Reference: patent US20250332212A1, “METHOD FOR TREATING OR PREVENTING ALOPECIA” (Suzhou Mingren Pharmaceutical Biotechnology Co., Ltd., priority 2024, published 2025)
Square brackets hold non-standard residues; d marks the D form. Ends that are not written are not given here. pS = N[C@@H](COP(=O)(O)O)C(=O)O

System: Wnt10a
Experiment: Wnt10a expression in skin tissue (qPCR, Western blotting)
Assay type: in vivo, mouse
Procedure: To illustrate the regulation of JP1 on the upstream Wnt ligand of β-catenin, this example intersected classical signaling pathway-related Wnt ligands and AGA-related Wnt ligands, and screened out the related Wnt ligands, including Wnt1, Wnt3a, Wnt7b, Wnt10a, and Wnt10b. In this example, qPCR was used to detect the mRNA expression of these Wnt molecules in the skin tissue of the mouse model in Example 6.
4.1) Protein extraction: 70 mg of skin tissue was placed in a 1.5 mL centrifuge tube, and 500 μL of tissue lysate RIPA containing protease inhibitor and phosphatase inhibitor was added. The tissue was placed on an ice box, pulverized by a tissue grinder, and then ultrasonically crushed to obtain a tissue suspension, which was then placed in a rotary windmill at 4° C. to be lysed for 2 h. The centrifuge was set at 12,000×g, 4° C., centrifuged for 15 min, and the supernatant was collected as the total protein.
5.1) Heating of protein samples: the total protein content of each tissue was 50 μg; calculate the volume of a corresponding protein sample, make up the volume with saline to 16 μL, then add 4 μL of 5×SDS sampling buffer, heat at 100° C. for 5 min, and then cool at room temperature and store at −20° C. […]
7.3) Relative mRNA expression levels of genes were calculated by the […] relative quantification method using GAPDH as an internal reference.

Substance: FPGSDRF-RGD (FPG[pS]DRFRGD) [JP1, amino acid S is phosphorylated; JWA peptide]
- Wnt10a protein expression (Western blotting, dose-dependent): significantly up-regulated
- Wnt10a mRNA expression (qPCR, P<0.05): elevated with a dose-effect relationship
